Test results from patent US10905661B2, “Disulfiram and metal salt staggered oral dosing regimen and staggered-release oral unit dosage forms” (Cantex Pharmaceuticals, Inc., priority 2016, dated 2021).

Key:
[1] = Stability of disulfiram with zinc gluconate or copper gluconate after 4 weeks at 40° C.; assay type: physicochemical; settings: 4 weeks @ 40° C./75% RH; Actual Conc. 0.040 mg/mL
Protocol: Stability of disulfiram and zinc gluconate was tested after 4 weeks at 40° C. in 0.1 N HCl. (Table 24).

[2] = Compatibility of disulfiram and zinc gluconate in 0.1N HCl (color, precipitate); assay type: physicochemical
Protocol: Compatibility of disulfiram and zinc gluconate for simultaneous oral administration was assessed. […] and 40 mg of disulfiram were mixed in 50 mL volumetric flasks, and 0.1N HCl was added to the flasks. […] A control was run in parallel: 0.1N HCl solution containing 50 mg of zinc gluconate alone.

Compound	Conc. (disulfiram found) [1] [mg/mL]	color change ([2]; 25° C./ambient humidity for 2 days)	precipitate / clarity of solution ([2]; T0 and T=2 days, 25° C.)
CCN(CC)C(=S)SSC(=S)N(CC)CC [DSF, bis(diethylthiocarbamoyl) disulfide]	0.040		
zinc gluconate [zinc gluconate alone]		no color change	remained clear
